Assay results: patent US8227407B2, “Macrocyclic inhibitors of hepatitis C virus” (Medivir AB, priority 2008, dated 2012)

How the values were obtained:
[1] = test system: HCV replicons (Huh-7 luc/neo cells, NS3-NS5B regions of HCV type 1b); experiment: HCV replicon assay (Huh-Luc cells, luciferase readout); type: cell-based; conditions: Hepatitis C virus, Huh-7, 72 h, three days incubation, luciferase activity
Procedure: The in vitro antiviral activity against HCV of the compounds of formula (I) was tested in a cellular HCV replicon system based on Lohmann et al. (1999) Science 285:110-113, with the further modifications described by Krieger et al. (2001) Journal of Virology 75: 4614-4624, which is further exemplified in the examples section. This model, while not a complete infection model for HCV, is widely accepted as the most robust and efficient model of autonomous HCV RNA replication currently available. […] It will be appreciated that it is important to distinguish between compounds that specifically interfere with HCV functions from those that exert cytotoxic or cytostatic effects in the HCV replicon model, and as a consequence cause a decrease in HCV RNA or linked reporter enzyme concentration. […]
The replicon cells were plated in 384 well plates in the presence of the test and control compounds which were added in various concentrations. Following an incubation of three days, HCV replication was measured by assaying luciferase activity (using standard luciferase assay substrates and reagents and a Perkin Elmer ViewLux™ ultraHTS microplate imager). […] The inhibitory activity of the compound on luciferase activity was monitored on the Huh-Luc cells, enabling a dose-response curve for each test compound. […]

[2] = biological target: T1, full-length hepatitis C NS3 protease enzyme with NS4A cofactor (HCV NS3/4A protease) (Hepatitis C virus genotype 1a, UniProt P27958); experiment: HCV NS3/4A protease inhibition assay (enzymatic); type: biochemical; conditions: 1 nM enzyme, 25 μM NS4A cofactor, 0.5 μM depsipeptide substrate, 30° C., competitive inhibition model
T1 construct: full-length hepatitis C NS3 protease enzyme
Procedure: The aim of this in vitro assay was to measure the inhibition of HCV NS3/4A protease complexes by the compounds of the present invention. This assay provides an indication of how effective compounds of the present invention would be in inhibiting HCV NS3/4A proteolytic activity.
The inhibition of full-length hepatitis C NS3 protease enzyme was measured essentially as described in Poliakov, 2002 Prot Expression & Purification 25 363 371. Briefly, the hydrolysis of a depsipeptide substrate, Ac-DED(Edans)EEAbuψ[COO]ASK(Dabcyl)-NH2 (AnaSpec, San José, USA), was measured spectrofluorometrically in the presence of a peptide cofactor, KKGSVVIVGRIVLSGK (Åke Engström, Department of Medical Biochemistry and Microbiology, Uppsala University, Sweden). [Landro, 1997 #Biochem 36 9340-9348]. The enzyme (1 nM) was incubated in 50 mM HEPES, pH 7.5, 10 mM DTT, 40% glycerol, 0.1% n-octyl-D-glucoside, with 25 μM NS4A cofactor and inhibitor at 30° C. for 10 min, whereupon the reaction was initiated by addition of 0.5 μM substrate. Inhibitors were dissolved in DMSO, sonicated for 30 sec. and vortexed. The solutions were stored at −20° C. between measurements.
The final concentration of DMSO in the assay sample was adjusted to 3.3%. The rate of hydrolysis was corrected for inner filter effects according to published procedures. [Liu, 1999 Analytical Biochemistry 267 331-335]. […]

T1 sequence (P27958 1027-1657): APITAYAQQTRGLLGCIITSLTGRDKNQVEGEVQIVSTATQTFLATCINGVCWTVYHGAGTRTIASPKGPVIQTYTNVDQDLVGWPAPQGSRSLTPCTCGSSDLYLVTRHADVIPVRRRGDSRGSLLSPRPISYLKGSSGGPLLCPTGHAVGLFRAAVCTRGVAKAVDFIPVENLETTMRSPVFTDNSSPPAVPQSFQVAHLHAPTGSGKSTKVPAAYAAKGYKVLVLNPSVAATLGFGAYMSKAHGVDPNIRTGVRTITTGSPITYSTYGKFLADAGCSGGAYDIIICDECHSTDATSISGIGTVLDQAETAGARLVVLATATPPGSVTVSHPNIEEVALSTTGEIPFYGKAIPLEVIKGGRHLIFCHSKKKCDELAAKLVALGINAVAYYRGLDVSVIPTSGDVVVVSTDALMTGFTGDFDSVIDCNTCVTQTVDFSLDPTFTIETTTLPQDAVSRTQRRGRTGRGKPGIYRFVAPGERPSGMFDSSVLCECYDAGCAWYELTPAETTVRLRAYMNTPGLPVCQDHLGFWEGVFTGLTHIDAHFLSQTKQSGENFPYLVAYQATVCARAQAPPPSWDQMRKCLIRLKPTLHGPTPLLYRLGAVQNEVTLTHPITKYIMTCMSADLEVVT

**Q.** What does the source list for `CCN(C)S(=O)(=O)NC(=O)[C@@]12C[C@H]1/C=C\CCCCN(C)C(=O)[C@@H]1C[C@H](Oc3cc(-c4nc(C(C)C)cs4)nc4cc(OC)ccc34)C[C@H]1C(=O)N2` [Compound 38, N-[17-[2-(4-isopropylthiazol-2-yl)-7-methoxyquinolin-4-yloxy]-13-methyl-2,14-dioxo-3,13-diazatricyclo[13.3.0.0^4,6]octadec-7-ene-4-carbonyl]-[(ethyl)(methyl)amino]sulfonamide]?
**A.** EC50 [1]: 0.3 µM; Ki [2]: 24 nM

**Q.** How did the EC50 [1] turn out when `COc1ccc2c(O[C@@H]3C[C@H]4C(=O)N[C@]5(C(=O)NS(=O)(=O)N(C)C)C[C@H]5/C=C\CCCCN(C)C(=O)[C@@H]4C3)cc(-c3nc(C(C)C)cs3)nc2c1` [Compound 37, N-[17-[2-(4-isopropylthiazol-2-yl)-7-methoxyquinolin-4-yloxy]-13-methyl-2,14-dioxo-3,13-diazatricyclo[13.3.0.0^4,6]octadec-7-ene-4-carbonyl](dimethylamino)sulfonamide] was run?
**A.** 0.3 µM

**Q.** What about the Ki [2] of the same molecule?
**A.** 24 nM
